Values quoted from earlier work as cited in patent US20210145797A1, “COMPOSITIONS FOR TREATING SKIN” (UNIVERSITY OF FLORIDA RESEARCH FOUNDATION, INCORPORATED, priority 2018, published 2021).

Test system: herpes simplex
Conditions: topical over-the-counter treatment of herpes simplex

SMILES: CCCCCCCCCCCCCCCCCCCCCCO [N-docosanol]
- improvement of time of healing (4.1 days to 2.5 days): 1.5 days
- time of healing (median) (from a median of 4.1 days): 2.5 days
